The results in this text go back to US9127001B2, “Substituted 4,5,6,7-tetrahydro-1H-pyrazolo[4,3-c]pyridines, their use as medicament, and pharmaceutical preparations comprising them” (Sanofi, priority 2011, dated 2015).

Sequence of Human TASK-1 channels (O14649 whole entry): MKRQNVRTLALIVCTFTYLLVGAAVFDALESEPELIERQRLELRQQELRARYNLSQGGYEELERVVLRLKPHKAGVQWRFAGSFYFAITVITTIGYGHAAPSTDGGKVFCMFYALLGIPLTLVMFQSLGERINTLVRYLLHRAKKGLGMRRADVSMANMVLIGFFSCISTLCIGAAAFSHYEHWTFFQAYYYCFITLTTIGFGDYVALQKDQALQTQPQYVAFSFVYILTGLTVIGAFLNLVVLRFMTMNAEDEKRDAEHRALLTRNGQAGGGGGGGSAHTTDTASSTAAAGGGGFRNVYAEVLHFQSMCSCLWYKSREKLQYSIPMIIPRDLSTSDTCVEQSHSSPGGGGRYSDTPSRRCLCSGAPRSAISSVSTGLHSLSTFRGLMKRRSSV

One experiment addresses Human TASK-1 channels (Homo sapiens (Human), UniProt O14649). In words: Activity on the TASK-1 channel in Xenopus oocytes (two-microelectrode voltage clamp). It is filed as cell-based.
Conditions: not given
On the procedure:
Human TASK-1 channels were expressed in Xenopus oocytes. For this purpose, oocytes were isolated from Xenopus laevis and defoliculated. Subsequently, TASK-1-encoding RNA synthesized in vitro was injected into oocytes. […] Data were acquired and analyzed using a TEC-10cx amplifier (NPI Electronic, Tamm, Germany) connected to an ITC-16 interface (Instrutech Corp., Long Island, USA) and Pulse software (HEKA Elektronik, Lambrecht, Germany). […] Oocytes were continuously superfused with ND96 buffer containing: NaCl 96 mM, KCl 2 mM, CaCl2 1.8 mM, MgCl2 1 mM, HEPES 5 mM (pH adjusted to 7.4 with NaOH). All experiments were performed at room temperature.
Test substances were consecutively added to the bath solution at rising concentrations. […] IC50 values were obtained by fitting the data to the general dose-response equation.
By inhibition is commonly meant the drop in the measured response relative to a control, in per cent. In turn, `CC(c1ccc(F)cc1)n1nc(-c2ccc(F)cc2)c2c1CCN(C(=O)NC(C)(C)C)C2` (single isomer, unassigned) [Example 11f, 3-(4-Fluoro-phenyl)-1-[1-(4-fluoro-phenyl)-ethyl]-1,4,6,7-tetrahydro-pyrazolo[4,3-c]pyridine-5-carboxylic acid tert-butylamide] registered an inhibition at 5 µM of 58%.

As for `CC(=O)N1CCc2c(c(-c3ncccc3C)nn2Cc2ccc(F)cc2F)C1` [Example 6ab, 1-[1-(2,4-Difluoro-benzyl)-3-(3-methyl-pyridin-2-yl)-1,4,6,7-tetrahydro-pyrazolo[4,3-c]pyridin-5-yl]-ethanone], at 5 µM the inhibition was 76%.

In turn, `COc1ccnc(-c2nn(Cc3ccc(F)cc3F)c3c2CN(C(C)=O)CC3)c1` [Example 6ac, 1-[1-(2,4-Difluoro-benzyl)-3-(4-methoxy-pyridin-2-yl)-1,4,6,7-tetrahydro-pyrazolo[4,3-c]pyridin-5-yl]-ethanone] yielded an inhibition at 5 µM of 80%.

For the molecule `CC(=O)N1CCc2c(c(-c3cccc(C(F)(F)F)c3)nn2Cc2csc(C)n2)C1` [Example 6ad, 1-[1-(2-Methyl-thiazol-4-ylmethyl)-3-(3-trifluoromethyl-phenyl)-1,4,6,7-tetrahydro-pyrazolo[4,3-c]pyridin-5-yl]-ethanone], the inhibition at 5 µM worked out at 86%.

`CC(=O)N1CCc2c(c(-c3cccc(C(F)(F)F)c3)nn2Cc2nccs2)C1` [Example 6ae, 1-[1-Thiazol-2-ylmethyl-3-(3-trifluoromethyl-phenyl)-1,4,6,7-tetrahydro-pyrazolo[4,3-c]pyridin-5-yl]-ethanone] registered an inhibition at 5 µM of 84%.

On to `CC(=O)N1CCc2c(c(-c3cccs3)nn2Cc2ccc(F)cc2F)C1` [Example 6af, 1-[1-(2,4-Difluoro-benzyl)-3-thiophen-2-yl-1,4,6,7-tetrahydro-pyrazolo[4,3-c]pyridin-5-yl]-ethanone], for which 5 µM produced 72% inhibition.

For `CC(=O)N1CCc2c(c(-c3cccc(C)c3)nn2Cc2ccc(Cl)s2)C1` [Example 6ag, 1-[1-(5-Chloro-thiophen-2-ylmethyl)-3-m-tolyl-1,4,6,7-tetrahydro-pyrazolo[4,3-c]pyridin-5-yl]-ethanone], the inhibition at 5 µM was determined as 75%.

Turning to `CC(=O)N1CCc2c(c(-c3cccc(C(F)(F)F)c3)nn2Cc2ccc(Cl)s2)C1` [Example 6ah, 1-[1-(5-Chloro-thiophen-2-ylmethyl)-3-(3-trifluoromethyl-phenyl)-1,4,6,7-tetrahydro-pyrazolo[4,3-c]pyridin-5-yl]-ethanone], at 5 µM the inhibition was 53%.

As to `CC(=O)N1CCc2c(c(-c3cccc(C#N)c3)nn2Cc2ccc(Cl)s2)C1` [Example 6ai, 3-[5-Acetyl-1-(5-chloro-thiophen-2-ylmethyl)-4,5,6,7-tetrahydro-1H-pyrazolo[4,3-c]pyridin-3-yl]-benzonitrile], at 5 µM the inhibition was 79%.

With `CC(=O)N1CCc2c(c(-c3cccc(Cl)c3)nn2Cc2ccc(Cl)s2)C1` [Example 6aj, 1-[3-(3-Chloro-phenyl)-1-(5-chloro-thiophen-2-ylmethyl)-1,4,6,7-tetrahydro-pyrazolo[4,3-c]pyridin-5-yl]-ethanone], the inhibition at 5 µM amounted to 76%.

As to `CC(=O)N1CCc2c(c(-c3ccsc3)nn2Cc2ccc(F)cc2F)C1` [Example 6al, 1-[1-(2,4-Difluoro-benzyl)-3-thiophen-3-yl-1,4,6,7-tetrahydro-pyrazolo[4,3-c]pyridin-5-yl]-ethanone], the inhibition at 5 µM was 75%.

Consider `CC(=O)N1CCc2c(c(-c3cccc(C#N)c3)nn2Cc2cc(F)ccc2F)C1` [Example 6ay, 3-[5-Acetyl-1-(2,5-difluoro-benzyl)-4,5,6,7-tetrahydro-1H-pyrazolo[4,3-c]pyridin-3-yl]-benzonitrile], for which the inhibition at 5 µM came to 86%.

Molecule `CC(=O)N1CCc2c(c(-c3cccc(C)c3)nn2Cc2ccc(F)cc2F)C1` [Example 6az, 1-[1-(2,4-Difluoro-benzyl)-3-m-tolyl-1,4,6,7-tetrahydro-pyrazolo[4,3-c]pyridin-5-yl]-ethanone] registered an inhibition at 5 µM of 89%.

`CC(=O)N1CCc2c(c(-c3cccc(Cl)c3)nn2Cc2ccc(F)cc2C)C1` [Example 6ba, 1-[3-(3-Chloro-phenyl)-1-(4-fluoro-2-methyl-benzyl)-1,4,6,7-tetrahydro-pyrazolo[4,3-c]pyridin-5-yl]-ethanone]: at 5 µM the inhibition was 81%.

The experiment is the same for the next values; noted with them: human TASK-1 expressed in Xenopus oocytes, currents during pulses to 40 mV, room temperature.
As usually defined, the IC50 is the point on the concentration scale where inhibition reaches its midpoint. A lower IC50 goes with inhibition by little substance. Take `CC(c1ccc(F)cc1)n1nc(-c2ccc(F)cc2)c2c1CCN(C(=O)N1CCOCC1)C2` (single isomer, unassigned) [Example 12b, {3-(4-Fluoro-phenyl)-1-[1-(4-fluoro-phenyl)-ethyl]-1,4,6,7-tetrahydro-pyr-azolo[4,3-c]pyridin-5-yl}-morpholin-4-yl-methanone]: the IC50 turned out to be 511 nM.

Molecule `CC(c1ccc(F)cc1)n1nc(-c2ccc(F)cc2)c2c1CCN(C(=O)N1CC[C@H](O)C1)C2` (single isomer, unassigned) [Example 12c] showed an IC50 of 734 nM.

As for `CC(=O)N1CCc2c(c(-c3ccc(F)cc3)nn2C(C)c2ccc(F)cc2)C1` (single isomer, unassigned; (+)) [Example 6be, (+)-1-{3-(4-Fluoro-phenyl)-1-[1-(4-fluoro-phenyl)-ethyl]-1,4,6,7-tetrahydro-pyrazolo[4,3-c]pyridin-5-yl}-ethanone], the IC50 was 500 nM.

`CC(=O)N1CCc2c(c(-c3ccc(F)cc3)nn2C(C)c2ccc(F)cc2)C1` (single isomer, unassigned; (-)) [Example 6bf, (−)-1-{3-(4-Fluoro-phenyl)-1-[1-(4-fluoro-phenyl)-ethyl]-1,4,6,7-tetrahydro-pyrazolo[4,3-c]pyridin-5-yl}-ethanone] displayed an IC50 of 500 nM.

In turn, `CC(=O)N1CCc2c(c(-c3ccc(Cl)s3)nn2Cc2ccc(F)cc2F)C1` [Example 6ak, 1-[3-(5-Chloro-thiophen-2-yl)-1-(2,4-difluoro-benzyl)-1,4,6,7-tetrahydro-pyrazolo[4,3-c]pyridin-5-yl]-ethanone] had an IC50 of 270 nM.

`CC(=O)N1CCc2c(c(-c3cccc(C(F)(F)F)c3)nn2Cc2ccc(C#N)cc2)C1` [Example 6am, 4-[5-Acetyl-3-(3-trifluoromethyl-phenyl)-4,5,6,7-tetrahydro-pyrazolo[4,3-c]pyridin-1-ylmethyl]-benzonitrile] yielded an IC50 of 114 nM.

Molecule `CC(=O)N1CCc2c(c(-c3cccc(C#N)c3)nn2C(C)c2ccc(F)cc2)C1` (stereo not shown) [Example 6an, 3-{5-Acetyl-1-[1-(4-fluoro-phenyl)-ethyl]-4,5,6,7-tetrahydro-1H-pyrazolo[4,3-c]pyridin-3-yl}-benzonitrile] returned an IC50 of 187 nM.

With `CC(=O)N1CCc2c(c(-c3ccc(F)cc3)nn2C(c2ccc(F)cc2)C2CC2)C1` (stereo not shown) [Example 6ao, 1-[1-[Cyclopropyl-(4-fluoro-phenyl)-methyl]-3-(4-fluoro-phenyl)-1,4,6,7-tetrahydro-pyrazolo[4,3-c]pyridin-5-yl]-ethanone], it took 258 nM to reach half-maximal inhibition (IC50).

Take `CC(=O)N1CCc2c(c(-c3cccc(OC(F)(F)F)c3)nn2Cc2ccc(F)cc2F)C1` [Example 6ap, 1-[1-(2,4-Difluoro-benzyl)-3-(3-trifluoromethoxy-phenyl)-1,4,6,7-tetrahydro-pyrazolo[4,3-c]pyridin-5-yl]-ethanone]: 285 nM corresponded to half-maximal inhibition (IC50).

Regarding `CC(=O)N1CCc2c(c(-c3ccc(F)cc3)nn2Cc2c(F)cccc2F)C1` [Example 6aq, 1-[1-(2,6-Difluoro-benzyl)-3-(4-fluoro-phenyl)-1,4,6,7-tetrahydro-pyrazolo[4,3-c]pyridin-5-yl]-ethanone], the IC50 came to 359 nM.

`CC(=O)N1CCc2c(c(-c3ccc(F)cc3)nn2C(C)c2ccc(F)cc2)C1` (stereo not shown) [Example 6ar, 1-{3-(4-Fluoro-phenyl)-1-[1-(4-fluoro-phenyl)-ethyl]-1,4,6,7-tetrahydro-pyrazolo[4,3-c]pyridin-5-yl}-ethanone] returned an IC50 of 552 nM.

In turn, `CC(=O)N1CCc2c(c(-c3ccc(F)cc3)nn2Cc2ccc(C(F)(F)F)cc2)C1` [Example 6as, 1-[3-(4-Fluoro-phenyl)-1-(4-trifluoromethyl-benzyl)-1,4,6,7-tetrahydro-pyrazolo[4,3-c]pyridin-5-yl]-ethanone] yielded an IC50 of 659 nM.

The molecule `COc1cccc(-c2nn(Cc3ccc(F)cc3F)c3c2CN(C(C)=O)CC3)c1` [Example 6at, 1-[1-(2,4-Difluoro-benzyl)-3-(3-methoxy-phenyl)-1,4,6,7-tetrahydro-pyrazolo[4,3-c]pyridin-5-yl]-ethanone] registered an IC50 of 720 nM.

Consider `CC(=O)N1CCc2c(c(-c3ccc(F)cc3)nn2Cc2cccc(C(F)(F)F)c2)C1` [Example 6av, 1-[3-(4-Fluoro-phenyl)-1-(3-trifluoromethyl-benzyl)-1,4,6,7-tetrahydro-pyrazolo[4,3-c]pyridin-5-yl]-ethanone], for which the half-maximal inhibitory concentration (IC50) was 911 nM.

`CC(=O)N1CCc2c(c(-c3cccc(OC(F)(F)F)c3)nn2C(C)c2ccc(F)cc2)C1` (stereo not shown) [Example 6aw, 1-[1-[1-(4-Fluoro-phenyl)-ethyl]-3-(3-trifluoromethoxy-phenyl)-1,4,6,7-tetrahydro-pyrazolo[4,3-c]pyridin-5-yl]-ethanone]: the IC50 is 947 nM.

In the case of `COc1cc(-c2nn(Cc3ccc(F)cc3F)c3c2CN(C(C)=O)CC3)ccc1F` [Example 6ax, 1-[1-(2,4-Difluoro-benzyl)-3-(4-fluoro-3-methoxy-phenyl)-1,4,6,7-tetrahydro-pyrazolo[4,3-c]pyridin-5-yl]-ethanone], the IC50 is 975 nM.

`CC(=O)N1CCc2c(c(-c3cccc(C(F)(F)F)c3)nn2Cc2ccc(Cl)nc2)C1` [Example 6b, 1-[1-(6-Chloro-pyridin-3-ylmethyl)-3-(3-trifluoromethyl-phenyl)-1,4,6,7-tetrahydro-pyrazolo[4,3-c]pyridin-5-yl]-ethanone] registered an IC50 of 172 nM.
